Source: patent US10688087B2, “Pharmaceutical compositions and therapeutic methods employing a combination of a manganese complex compound and a non-manganese complex form of the compound” (PLEDPHARMA AB, priority 2009, dated 2020)

Experiments:
[1] = system: white blood cells; conditions: mice, 10 mg/kg b.w. MnDPDP (Alexandre et al., 2006); cited from earlier work
[2] = rats, i.v.
Method: After injection, the rats were immediately placed in metabolic cages for urine collection over a period of 0-24 hours. To obtain basal content of manganese (Mn) in urine, two additional (control) rats were placed in metabolic cages for urine collection over the same period of time. The urine samples were then stored at −80° C. until Mn analysis. Before analysis, the samples were thawed and extensively shaken to obtain homogenous samples. A five ml aliquot was taken from each sample and 5 ml concentrated nitric acid was added. The samples were then resolved in a microwave oven and thereafter diluted with distilled water to a final volume of 50 ml. The Mn content of each sample was analyzed by ICP-MS (Inductively Coupled Plasma Mass Spectrometry). […] This sample was treated in an identical manner to that of the urine samples and analyzed for its Mn content. Results are presented as total 0-24 h urine Mn content (expressed as μmol/kg±S.E.M.) and as percentage (±S.E.M.) of the injected dose. The statistical difference between animals receiving MnDPDP alone and animals receiving MnDPDP and DPDP, with respect to excretion of manganese into the urine, was tested by an unpaired Student's t-test. A p-value lower than 0.05 was considered as a statistically significant difference.

[3] = Literature pharmacokinetics of i.v. MnDPDP (Toft et al., 1997): manganese release, urine Mn and Zn, metabolism; format: in vivo; conditions: humans, 10 μmol/kg b.w., rough recalculation of data of Toft et al.
[4] = i.v., 10 μmol/kg b.w.; humans (Toft et al.) and rats (Hustvedt et al.); cited from earlier work
[5] = rats, i.v.; for effect on 0-24 h Zn excretion: 10 μmol/kg MnDPDP alone, with 20 μmol/kg b.w. DPDP, or 10 μmol/kg b.w. DPDP, n=2
Method: 10 male Wistar rats (approximately 250 g) were injected intravenously, via one of the tail veins, with either 0, 0.125, 0.250, 0.500 or 0.750 ml of a 10 mM DPDP formulation, corresponding to 0, 5, 10, 20 and 30 μmol/kg b.w. […] After injection, the rats were immediately placed in metabolic cages for urine collection over a period of 0-24 hours. The urine samples were then stored at −80° C. until Zn and Mn analyses. Before analyses, the samples were thawed and extensively shaken to obtain homogenous samples. A five ml aliquot was taken from each sample and 5 ml concentrated nitric acid was added. The samples were then resolved in a microwave oven and thereafter diluted with distilled water to a final volume of 50 ml. The zinc (Zn) and manganese (Mn) content of each sample were analyzed by ICP-MS. Results are presented as total 0-24 h urine Zn and Mn content (expressed as μmol/kg b.w.±S.E.M.).

[6] = rat, in vivo, ip
Method: Twenty-four hours later, the rats were killed and the brains were dissected out and stored at −80° C. until Mn analysis. […] Before analysis, each brain was resolved in 5 ml concentrated nitric acid plus 3 ml distilled water in a microwave oven, and thereafter diluted with distilled water to a final volume of 50 ml. The Mn and Zn content of each sample was analyzed by ICP-MS. Results are expressed as μg/g brain wet weight±S.E.M and percentage increase in Mn brain content. […] A p-value lower than 0.05 was considered as a statistically significant difference.

[7] = system: white blood cells; test: Paclitaxel-induced myelosuppression (leucopenia) in mice, blood cell counts (Example 5); format: in vivo, BALB/c female mice; conditions: i.p., paclitaxel 20 mg/kg b.w. on days 0, 2, 4, blood day 10
Method: To test the therapeutic efficacy, initial experiments were conducted in BALB/c female mice (15-20 g), as described by Alexandre et al., JNCI 2006; 98:236-244).
Five mice were treated in each group. Paclitaxel was administered on days 0, 2, and 4. […] Ten days after the first injection the mice were anesthetized and blood samples were withdrawn by heart puncture into EDTA-tubes and blood cell counting (including white blood cell count (WBC); absolute neutrophil (ANC), monocyte and lymphocyte count) was conducted on a CELL-DYN Sapphire analyzer, after the blood samples had been diluted 1:1. Some samples had to be discarded because of clotting but all groups included at least blood from 3 animals.

Row | amount of manganese released from the complex ([2]; as exemplified by Example 1) | Mn excretion in urine during 0-24 h as percentage of the injected dose ([2]; 0.25 ml 10 mM MnDPDP ± 0.5 ml 10 mM DPDP, mean±S.E.M., n=7) | renal zinc excretion [3] | effect on 0-24 h Zn excretion [5] | amount of zinc in the urine up to 24 hours ([5]; 10 μmol/kg b.w. MnDPDP) | Zn brain content [6] | percentage increase in brain Mn [6] | effect of increasing doses of DPDP on 0-24 h Mn excretion ([5]; 0-30 μmol/kg b.w. DPDP) | 0-24 h Zn excretion (saturation level) ([5]; at a dose of 10 μmol/kg b.w. DPDP) | reduction of the various white blood cells [7] | SMILES | protection against paclitaxel-induced leucopenia [1] | manganese originating from the chelator that comes out in the urine [4]
1 | 85% | 15.7±1.1% | approximately 3 μmol/kg b.w. | relatively small effect | about 2 μmol/kg b.w. | identical | 23.5% |  |  |  | Cc1ncc(COP(=O)(O)O)c(CN(CCN(CC(=O)O)Cc2c(COP(=O)(O)O)cnc(C)c2O)CC(=O)O)c1O.[Mn] [MnDPDP, Manganese N,N′-bis-(pyridoxal-5-phosphate)-ethylenediamine-N,N′-diacetic acid] | effectively protect | ≤ 20%
2 |  |  |  | doubles the zinc excretion |  |  |  | just minor effects | around 4 μmol/kg |  | Cc1ncc(COP(=O)(O)O)c(CN(CCN(CC(=O)O)Cc2c(COP(=O)(O)O)cnc(C)c2O)CC(=O)O)c1O [DPDP, N,N′-bis-(pyridoxal-5-phosphate)-ethylenediamine-N,N′-diacetic acid] |  | 
3 |  |  |  |  |  |  |  |  |  | ~50% | CC(=O)O[C@H]1C(=O)[C@@]2(C)[C@H]([C@H](OC(=O)c3ccccc3)[C@]3(O)C[C@H](OC(=O)[C@H](O)[C@@H](NC(=O)c4ccccc4)c4ccccc4)C(C)=C1C3(C)C)[C@]1(OC(C)=O)CO[C@@H]1C[C@@H]2O [Paclitaxel, paclitaxel] |  | 
